Literature values as cited in paper PMC6309200 (Journal of Controlled Release, 2018).
Where a SMILES comes first, the peptide text is derived from it.

Tested on: PA-specific CD8+ T cells
Details: shown previously; ref [15]

In the case of `CC(=O)N[C@@H](CCC(N)=O)C(=O)N[C@@H](CCC(N)=O)C(=O)N[C@@H](CCCCN)C(=O)N[C@@H](Cc1ccccc1)C(=O)N[C@@H](CCC(N)=O)C(=O)N[C@@H](Cc1ccccc1)C(=O)N[C@@H](CCC(N)=O)C(=O)N[C@@H](Cc1ccccc1)C(=O)N[C@@H](CCC(=O)O)C(=O)N[C@@H](CCC(N)=O)C(=O)N[C@@H](CCC(N)=O)C(N)=O` [Q11] (Ac-QQKFQFQFEQQ-NH2), the “Immunogenicity without attached competent epitopes” value is given as “non-immunogenic”.
